Compound `Fc1cccc(Cl)c1-c1c(Cl)cc(-c2ccccn2)nc1NC1CCC(c2ccccc2)CC1` (stereo not shown) [I-24] had a melting point of 162 °C.

The compound `COc1ccc(CCNc2cc(-n3cccn3)nc(Cl)c2-c2c(F)cccc2Cl)cc1OC` [I-58] returned a melting point of 201 °C.

In the case of `CC(C)Nc1nc(-n2cncn2)cc(Cl)c1-c1c(F)cccc1Cl` [I-14, 4-chloro-3-(2-chloro-6-fluorophenyl)-2-(2-propylamino)-6-([1,2,4]triazol-1-yl)pyridine], the melting point was determined as 152 °C.

Take `Fc1cccc(Cl)c1-c1c(NC2CCCCC2)cc(-c2ccccn2)nc1Cl` [I-36]: the melting point is 83 °C.

With `Cc1nc(-c2cc(NC(C)C)c(-c3c(F)cccc3Cl)c(Cl)n2)sc1C` [I-50], the melting point came out at 183 °C.

In turn, `CC(C)(C)C1CCC(Nc2cc(-c3ccccn3)nc(Cl)c2-c2c(F)cccc2Cl)CC1` (stereo not shown) [I-27] returned a melting point of 163 °C.

The compound `CC(C)Nc1nc(-c2ccccn2)cc(Cl)c1-c1c(F)cccc1Cl` [I-39] gave a melting point of 67 °C.

`Fc1cccc(Cl)c1-c1c(NC2CCCCC2)cc(-n2cccn2)nc1Cl` [I-44] registered a melting point of 112 °C.

`CC(C)Nc1cc(-c2nc3ccccc3s2)nc(Cl)c1-c1c(F)cccc1Cl` [I-52]: the melting point came to 154 °C.

`Fc1cccc(Cl)c1-c1c(Cl)cc(-c2ccccn2)nc1N1CCCC1` [I-40] gave a melting point of 155 °C.

`CC1CCN(c2nc(-c3ncccn3)cc(Cl)c2-c2c(F)cccc2Cl)CC1` [I-53] displayed a melting point of 129 °C.

As to `COc1ccc(CCNc2nc(-n3cccn3)cc(Cl)c2-c2c(F)cccc2Cl)cc1OC` [I-57], the melting point turned out to be 59 °C.

With `Fc1cccc(Cl)c1-c1c(NC2CCC(c3ccccc3)CC2)cc(-n2cccn2)nc1Cl` (stereo not shown) [I-4], the melting point came to 170 °C.

As to `Fc1cccc(Cl)c1-c1c(NC2CC2)cc(-n2cccn2)nc1Cl` [I-22], the melting point worked out at 164 °C.

Regarding `CC1CCN(c2cc(-c3ncccn3)nc(Cl)c2-c2c(F)cccc2Cl)CC1` [I-54], the melting point came to 129 °C.

`Fc1cccc(Cl)c1-c1c(Cl)cc(-n2cccn2)nc1NC1CCC(c2ccccc2)CC1` (stereo not shown) [I-5]: the melting point stood at 78 °C.

The compound `Fc1cccc(Cl)c1-c1c(Cl)cc(-n2cccn2)nc1NC1CC1` [I-23] registered a melting point of 103 °C.

`Fc1cccc(Cl)c1-c1c(N2CCCC2)cc(-n2cccn2)nc1Cl` [I-21] gave a melting point of 161 °C.

In the case of `CCC(C)Nc1cc(-n2cccn2)nc(Cl)c1-c1c(F)cccc1Cl` (stereo not shown) [I-15], the melting point was determined as 108 °C.

For the compound `COc1ccc(CCNc2cc(-c3ccccn3)nc(Cl)c2-c2c(F)cccc2Cl)cc1OC` [I-56], the melting point was 78 °C.

The compound `CC(C)Nc1cc(-n2cncn2)nc(Cl)c1-c1c(F)cccc1Cl` [I-13, 2-Chloro-3-(2-chloro-6-fluorophenyl)-4-(2-propylamino)-6-([1,2,4]triazol-1-yl)pyridine] registered a melting point of 152 °C.

For the compound `Fc1cccc(Cl)c1-c1c(Cl)cc(-n2cccn2)nc1NC1CCCCC1` [I-43], the melting point was 152 °C.

`Fc1cccc(Cl)c1-c1c(Cl)cc(-n2cccn2)nc1N1CCCC1` [I-20] registered a melting point of 158 °C.

With `CC(C)Nc1nc(-c2nc3ccccc3s2)cc(Cl)c1-c1c(F)cccc1Cl` [I-51], the melting point amounted to 119 °C.

Take `CC(C)Nc1cc(-c2nccs2)nc(Cl)c1-c1c(F)cccc1Cl` [I-48]: the melting point was found to be 78 °C.

Consider `CC(C)(C)C1CCC(Nc2nc(-n3cccn3)cc(Cl)c2-c2c(F)cccc2Cl)CC1` (stereo not shown) [I-9], for which the melting point came out at 126 °C.

Turning to `CC1CCN(c2nc(-n3cccn3)cc(Cl)c2-c2c(F)cccc2Cl)CC1` [I-19], the melting point was 120 °C.

The compound `CCC(C)Nc1nc(-n2cccn2)cc(Cl)c1-c1c(F)cccc1Cl` (stereo not shown) [I-16] gave a melting point of 114 °C.

`Fc1cccc(Cl)c1-c1c(NC2CCC(c3ccccc3)CC2)cc(-c2ccccn2)nc1Cl` (stereo not shown) [I-25]: the melting point was 181 °C.

In turn, `Cc1cccc(-c2cc(Cl)c(-c3c(F)cccc3Cl)c(NC(C)C)n2)n1` [I-45] registered a melting point of 131 °C.

For `CC1CCN(c2cc(-c3ccccn3)nc(Cl)c2-c2c(F)cccc2Cl)CC1` [I-31], the melting point was found to be 119 °C.

(Values after patent publication US7695728B2, “2-substituted pyridines, processes for their preparation and their use for controlling harmful fungi” (BASF Aktiengesellschaft, priority 2004, dated 2010).)
